Experimental data reported in patent US20110288042A1, “STABLE HIGHLY PURE AZACITIDINE AND PREPARATION METHODS THEREFOR” (CHEMAGIS LTD., priority 2007, published 2011).
Where two headings read alike, the source gives them in different places.

Tests used:
[1] = cited from earlier work
[2] = Induced degradation of 5-azacytidine in solid state (observation, FT-IR, HPLC); type: physicochemical; conditions: for Area (%) at RRT 1.00 (5-azacytidine) / Area (%) of peak at RRT 0.63 / Area (%) of peak at RRT 2.01 / Area (%) of peak at RRT 2.05 / Total impurities (%): solid
Method: (§1) The HPLC measurements were performed using a system equipped with an Inertsil C18 column (ODS-2, 5 microns, 250×4.6 mm (ODS-167)). Other parameters of the system were as follows: • Detection: UV detector operated on 242 nm • Column temperature: 20° C. • Run time: 45 minutes • Injection volume: 10 μl • Flow rate: 1.0 ml/minute • Sample set temperature: 5° C. • Sample concentration: about 1.65 mg/ml • Diluent: Mixture of 30% 10 mM ammonium acetate and 70% THF
(§2) Analyses were performed using the following mobile phase • Mobile Phase (Eluent) A: 10 mM ammonium acetate • Mobile Phase (Eluent) B: 60% 10 mM ammonium acetate, 40% MeOH
The sample was placed in a UV chamber and exposed to UV light for 48 hours. • Accelerated conditions [40±2° C./75±5% Relative Humidity (RH)].
At the end of the stipulated time period, the physical descriptions of each sample were noted down. Identification tests were performed by FT-IR, and purity checks were performed by HPLC analysis. The protected sample, as defined herein, is the reference storage material used for carrying out the experiments detailed in Tables 7 and 8.

[3] = Induced degradation of 5-azacytidine in liquid state (HPLC); type: physicochemical
Method: as §1, §2
Acidic hydrolysis—blank preparation: Hydrochloric acid (5 ml, 0.01M HCl) was diluted to 10 ml with the diluent. […] An aliquot (5 ml) was diluted to 10 ml with the diluent. The blank preparation and sample preparation were injected to the HPLC system by using the chromatographic conditions as mentioned in example 8. • Basic hydrolysis—blank preparation: Sodium hydroxide (5 ml, 0.01M NaOH) was diluted to 10 ml with the diluent. […] An aliquot (5 ml) was diluted to 10 ml with diluent. […] An aliquot (5 ml) was diluted to 10 ml with the diluent. The blank and sample preparations were injected to the HPLC system using the chromatographic conditions as detailed in example 8. • Photolysis—blank preparation: The diluent (50 ml) was mixed under UV light for 48 hours. […] The blank preparation and sample preparation were injected to the HPLC system using the chromatographic conditions as mentioned in example 8.

[4] = accelerated conditions (40 ± 2° C., 75 ± 5% RH), 48 hours
[5] = exposure to ambient conditions, visible light 48 hours
[6] = exposure to elevated temperature (105° C.), 48 hours
[7] = Acidic: 0.01M HCl, room temperature, about 1 hour
[8] = Basic: 0.01M NaOH, room temperature, about 1 hour
[9] = Oxidation: 10% hydrogen peroxide solution, room temperature, about 1 hour
[10] = Photolysis: in the diluent, UV light 48 hours

Nc1ncn([C@@H]2O[C@H](CO)[C@@H](O)[C@H]2O)c(=O)n1 [5-azacytidine, 4-amino-1-β-D-ribofuranosyl-1,3,5-s-triazine-2(1H)-one]
Solubility ([1]; in N-methyl-2-pyrrolidone): sparingly soluble | Solubility ([1]; in acetone): insoluble | Solubility ([1]; in dimethylsulfoxide (DMSO)): soluble | Solubility ([1]; in ethanol/water (50/50)): slightly soluble | Solubility ([1]; in ethanol): insoluble | Solubility ([1]; in methyl ethyl ketone): insoluble | Solubility ([1]; in normal saline): sparingly soluble | Solubility ([1]; in polyethylene glycol): slightly soluble | Solubility ([1]; in propylene glycol): slightly soluble | Solubility ([1]; in water saturated octanol): sparingly soluble | Solubility ([1]; in water): sparingly soluble | FT-IR spectra changes ([2]; solid state induced degradation): did not show any significant changes | Stability in solid state (HPLC analysis) ([2]; solid state, Tables 7 and 8): stable to heat and IJV light | Change in color of the sample ([2]; solid state, exposed to an elevated temperature): slight change in color | Area (%) at RRT 1.00 (5-azacytidine) [2, 4]: 97.04% | Area (%) of peak at RRT 0.63 [2, 4]: 1.90% | Area (%) of peak at RRT 2.01 [2, 4]: 0.80% | Area (%) of peak at RRT 2.05 [2, 4]: 0.14% | Total impurities (%) [2, 4]: 2.96% | Area (%) at RRT 1.00 (5-azacytidine) ([2]; exposure to UV light, 48 hours): 96.64% | Area (%) of peak at RRT 0.63 ([2]; exposure to UV light, 48 hours): 1.66% | Area (%) of peak at RRT 2.01 ([2]; exposure to UV light, 48 hours): 1.35% | Area (%) of peak at RRT 2.05 ([2]; exposure to UV light, 48 hours): 0.24% | Total impurities (%) ([2]; exposure to UV light, 48 hours): 3.36% | Area (%) at RRT 1.00 (5-azacytidine) [2, 5]: 96.75% | Area (%) of peak at RRT 0.63 [2, 5]: 1.52% | Area (%) of peak at RRT 2.01 [2, 5]: 1.36% | Area (%) of peak at RRT 2.05 [2, 5]: 0.27% | Total impurities (%) [2, 5]: 3.25% | Area (%) at RRT 1.00 (5-azacytidine) [2, 6]: 96.61% | Area (%) of peak at RRT 0.63 [2, 6]: 2.00% | Area (%) of peak at RRT 2.01 [2, 6]: 1.01% | Area (%) of peak at RRT 2.05 [2, 6]: 0.17% | Total impurities (%) [2, 6]: 3.39% | Area (%) at RRT 1.00 (5-azacytidine) ([2]; protected sample (storage)): 96.72% | Area (%) of peak at RRT 0.63 ([2]; protected sample (storage)): 1.55% | Area (%) of peak at RRT 2.01 ([2]; protected sample (storage)): 1.37% | Area (%) of peak at RRT 2.05 ([2]; protected sample (storage)): 0.24% | Total impurities (%) ([2]; protected sample (storage)): 3.28% | Area (%) at RRT 1.00 (5-azacytidine) [3, 7]: 71.96% | Area (%) of peak at RRT 0.33 [3, 7]: 0.17% | Area (%) of peak at RRT 0.63 [3, 7]: 21.1% | Area (%) of peak at RRT 1.18 [3, 7]: 5.35% | Area (%) of peak at RRT 1.65 [3, 7]: 0.14% | Area (%) of peak at RRT 2.01 [3, 7]: 1.10% | Total impurities (%) [3, 7]: 28.04% | Area (%) at RRT 1.00 (5-azacytidine) [3, 8]: 3.38% | Area (%) of peak at RRT 0.33 [3, 8]: 89.92% | Area (%) of peak at RRT 0.42 [3, 8]: 3.97% | Total impurities (%) [3, 8]: 96.62% | Area (%) at RRT 1.00 (5-azacytidine) [3, 9]: 97.18% | Area (%) of peak at RRT 0.33 [3, 9]: 0.84% | Area (%) of peak at RRT 0.42 [3, 9]: 0.06% | Area (%) of peak at RRT 0.63 [3, 9]: 0.23% | Area (%) of peak at RRT 2.01 [3, 9]: 1.62% | Total impurities (%) [3, 9]: 2.82% | Area (%) at RRT 1.00 (5-azacytidine) [3, 10]: 61.64% | Area (%) of peak at RRT 0.33 [3, 10]: 0.85% | Area (%) of peak at RRT 0.39 [3, 10]: 0.11% | Area (%) of peak at RRT 0.42 [3, 10]: 0.20% | Area (%) of peak at RRT 0.63 [3, 10]: 35.24% | Area (%) of peak at RRT 1.18 [3, 10]: 0.46% | Area (%) of peak at RRT 1.65 [3, 10]: 0.39% | Area (%) of peak at RRT 2.01 [3, 10]: 0.86% | Area (%) of peak at RRT 2.05 [3, 10]: 0.17% | Total impurities (%) [3, 10]: 38.36% | Area (%) at RRT 1.00 (5-azacytidine) ([3]; Storage (reference sample)): 96.72% | Area (%) of peak at RRT 0.63 ([3]; Storage (reference sample)): 1.55% | Area (%) of peak at RRT 2.01 ([3]; Storage (reference sample)): 1.37% | Area (%) of peak at RRT 2.05 ([3]; Storage (reference sample)): 0.24% | Total impurities (%) ([3]; Storage (reference sample)): 3.28% | Degradation in liquid state (HPLC analysis) ([3]; liquid state, Table 9): significant degradation
